Measured values taken from ChEMBL document CHEMBL1201862, “PubChem BioAssay data set” (2004).
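Protocol summary: plate cells (96-well), add compound at 5 concentrations, incubate 48 h, interpolate endpoints linearly. GI50: concentration for 50% inhibition of growth.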 Calls of active or inactive are those of the source. No stated cut-off is given here; in the data, active = GI50 up to about 1.1 µM and inactive = higher.

Legend:
Assay in all cases: DTP human tumour cell line panel, 48 h
NCI/ADR-RES = system: NCI/ADR-RES
KM-20L2 = system: KM-20L2
OVCAR-5 = system: OVCAR-5
UO-31 = system: UO-31
HT-29 = system: HT-29
K562 = system: K562
SK-MEL-28 = system: SK-MEL-28
XF498 = system: XF498
DMS-273 = system: DMS-273
M19-MEL = system: M19-MEL
HCC 2998 = system: HCC 2998
SF-268 = system: SF-268
SK-MEL-2 = system: SK-MEL-2
RXF 393 = system: RXF 393
KM12 = system: KM12
CAKI-1 = system: CAKI-1
IGROV-1 = system: IGROV-1
EKVX = system: EKVX
SNB-78 = system: SNB-78
SN12C = system: SN12C

Measured: GI50

Cc1c(C2=NN=C(/N=N/c3c(O)cccc3O)/C2=C/c2ccccc2)c(=O)n(-c2ccccc2)n1C
inactive: NCI/ADR-RES > 100 µM | KM-20L2 > 100 µM | OVCAR-5 > 100 µM | UO-31 > 100 µM | HT-29 > 100 µM | K562 > 100 µM | SK-MEL-28 > 100 µM | XF498 > 100 µM | DMS-273 > 100 µM | M19-MEL > 100 µM | HCC 2998 > 100 µM | SF-268 > 100 µM | SK-MEL-2 > 100 µM | RXF 393 > 100 µM | KM12 > 100 µM | CAKI-1 > 100 µM | IGROV-1 > 100 µM | EKVX > 100 µM | SNB-78 > 100 µM | SN12C > 100 µM

CN(C)CCNc1c([N+](=O)[O-])cc2c3c(cccc13)C(=O)N(CCN(C)C)C2=O
inactive: NCI/ADR-RES 1.54 µM | KM-20L2 1.21 µM | OVCAR-5 2.03 µM | UO-31 1.58 µM | SK-MEL-28 1.67 µM | XF498 1.55 µM | M19-MEL 1.6 µM | HCC 2998 1.53 µM | SF-268 2.2 µM | SK-MEL-2 1.77 µM | RXF 393 1.42 µM | KM12 8.18 µM | CAKI-1 2.13 µM | IGROV-1 1.73 µM | EKVX 2.15 µM | SNB-78 1.61 µM | SN12C 1.46 µM
active: HT-29 0.61 µM | K562 0.556 µM | DMS-273 1.07 µM
